The numbers were not newly measured in article PMC6062831 (ACS Central Science, 2018), which cites them from elsewhere.

Where two headings read alike, the source gives them in different places.

One may read the Ki as a dissociation constant, usually derived from enzyme kinetics or from competition with a known ligand.

One series relates to human GUS ortholog. The conditions noted are these: cited from earlier work.
Another series relates to Escherichia coli GUS. Particulars: cited from earlier work.

`O=C(O)[C@@H](O)[C@H]1OC(=O)[C@H](O)[C@H]1O` [D-glucaro-1,4-lactone]: in the series on human GUS ortholog, the “inhibition of human GUS ortholog” value was “potent inhibitors”. Besides, the inhibition constant (Ki) with Escherichia coli GUS (read-out: Ki against Escherichia coli GUS) is 19 µM.

`O=C(O)[C@@H]1[C@@H](O)[C@H](O)[C@@]2(O)CC[C@@H]1N2` [uronic-noeurostegine]: in the series with human GUS ortholog, the “inhibition of human GUS ortholog” value was “potent inhibitors”. In addition, the inhibition constant (Ki) in the series on Escherichia coli GUS (read-out: Ki against E. coli GUS) was 0.06 µM.
